Measurements: US10597388B2, “Pyridazinone herbicides” (FMC CORPORATION, priority 2014, dated 2020)

What was measured:
Assay in all cases: Test D controlled growth environment herbicide test, pre- and postemergence
Format in all cases: in vivo
[1] = system: deadnettle (henbit deadnettle, Lamium amplexicaule)
Text: (§1) Seeds of plant species selected from bluegrass (annual bluegrass, Poa annua), blackgrass (Alopecurus myosuroides), Canada thistle (Cirsium arvense), canarygrass (Phalaris minor), chickweed (common chickweed, Stellaria media), geranium, cutleaf (cutleaf geranium, Geranium dissectum), galium (catchweed bedstraw, Galium aparine), bromegrass, downy (downy bromegrass, Bromus tectorum), field poppy (Papaver rhoeas), field violet (Viola arvensis), foxtail, green (green foxtail, Setaria viridis), deadnettle (henbit deadnettle, Lamium amplexicaule), ryegrass, Italian (Italian ryegrass, Lolium multiflorum), kochia (Kochia scoparia), lambsquarters (Chenopodium album), oilseed rape (Brassica napus), pigweed (Amaranthus retroflexus), chamomile (scentless chamomile, Matricaria inodora), Russian thistle (Salsola kali), speedwell (bird's-eye speedwell, Veronica persica), barley, spring (spring barley, Hordeum vulgare), wheat, spring (spring wheat, Triticum aestivum), buckwheat, wild (wild buckwheat, Polygonum convolvulus), mustard, wild (wild mustard, Sinapis arvensis), oat, wild (wild oat, Avena fatua), radish, wild (wild radish, Raphanus raphanistrum), windgrass (Apera spica-venti), barley, winter (winter barley, Hordeum vulgare), and wheat, winter (winter wheat, Triticum aestivum) were planted into a silt loam soil and treated preemergence with test chemicals formulated in a non-phytotoxic solvent mixture which included a surfactant.
(§2) At the same time, these species were planted in pots containing Redi-Earth® planting medium (Scotts Company, 14111 Scottslawn Road, Marysville, Ohio 43041) comprising spaghnum peat moss, vermiculite, wetting agent and starter nutrients and treated with postemergence applications of the test chemicals formulated in the same manner. Plants ranged in height from 2 to 18 cm (1- to 4-leaf stage). Treated plants and controls were maintained in a controlled growth environment for 14 to 21 d after which time all species were compared to controls and visually evaluated. Plant response ratings, summarized in Table D, are based on a scale of 0 to 100 where 0 is no effect and 100 is complete control. A dash (-) response means no test result.

[2] = system: wheat, spring (spring wheat, Triticum aestivum)
Text: as §1, §2

[3] = system: blackgrass (Alopecurus myosuroides)
Text: as §1, §2

[4] = system: bromegrass, downy (downy bromegrass, Bromus tectorum)
Text: as §1, §2

[5] = system: ryegrass, Italian (Italian ryegrass, Lolium multiflorum)
Text: as §1, §2

[6] = system: foxtail, green (green foxtail, Setaria viridis)
Text: as §1, §2

[7] = system: mustard, wild (wild mustard, Sinapis arvensis)
Text: as §1, §2

[8] = system: wheat, winter (winter wheat, Triticum aestivum)
Text: as §1, §2

[9] = system: oat, wild (wild oat, Avena fatua)
Text: as §1, §2

[10] = system: Russian thistle (Salsola kali)
Text: as §1, §2

[11] = system: oilseed rape (Brassica napus)
Text: as §1, §2

[12] = system: chickweed (common chickweed, Stellaria media)
Text: as §1, §2

[13] = system: speedwell (bird's-eye speedwell, Veronica persica)
Text: as §1, §2

[14] = Postemergence, 31 g ai/ha, scale 0 to 100 (0 no effect, 100 complete control)
[15] = Postemergence, 125 g ai/ha, visual rating on scale 0 (no effect) to 100 (complete control), 14 to 21 d
[16] = Postemergence, 250 g ai/ha, scale 0 to 100 (0 no effect, 100 complete control)
[17] = Preemergence, 62 g ai/ha, scale 0 to 100 (0 no effect, 100 complete control)
[18] = Preemergence, 125 g ai/ha, scale 0 to 100 (0 no effect, 100 complete control)
[19] = Preemergence, 250 g ai/ha, scale 0 to 100, 0 no effect, 100 complete control
[20] = postemergence, 62 g ai/ha, scale 0 to 100, 0 no effect, 100 complete control

Structure (SMILES): Cc1nn(C)c(=O)c(-c2c(C)sc3c(C)cc(Cl)cc23)c1O [Compound 35]
- Deadnettle plant response rating [1, 14]: 15
- Plant response rating, Deadnettle [1, 15]: 20
- Plant response rating, Deadnettle [1, 16]: 80
- Plant response rating (scale of 0 to 100), Deadnettle ([1]; Preemergence, 31 g ai/ha): 0
- Plant response rating, Deadnettle [1, 17]: 15
- Plant response rating, Deadnettle [1, 18]: 55
- Plant response rating, Deadnettle [1, 19]: 80
- Plant response rating, Deadnettle [1, 20]: 20
- Wheat, Spring plant response rating [2, 14]: 15
- Plant response rating, Wheat, Spring [2, 15]: 25
- Plant response rating, Wheat, Spring [2, 16]: 30
- Plant response rating (scale of 0 to 100), Wheat, Spring ([2]; Preemergence, 31 g ai/ha): 0
- Plant response rating, Wheat, Spring [2, 17]: 0
- Plant response rating, Wheat, Spring [2, 18]: 5
- Plant response rating, Wheat, Spring [2, 19]: 30
- Plant response rating, Wheat, Spring [2, 20]: 20
- Blackgrass plant response rating [3, 14]: 30
- Plant response rating, Blackgrass [3, 15]: 75
- Plant response rating, Blackgrass [3, 16]: 85
- Plant response rating (scale of 0 to 100), Blackgrass ([3]; Preemergence, 31 g ai/ha): 75
- Plant response rating, Blackgrass [3, 17]: 85
- Plant response rating, Blackgrass [3, 18]: 85
- Blackgrass plant response rating [3, 19]: 95
- Plant response rating, Blackgrass [3, 20]: 65
- Bromegrass, Downy plant response rating [4, 14]: 5
- Plant response rating, Bromegrass, Downy [4, 15]: 25
- Plant response rating, Bromegrass, Downy [4, 16]: 30
- Plant response rating (scale of 0 to 100), Bromegrass, Downy ([4]; Preemergence, 31 g ai/ha): 20
- Plant response rating, Bromegrass, Downy [4, 17]: 30
- Plant response rating, Bromegrass, Downy [4, 18]: 55
- Plant response rating, Bromegrass, Downy [4, 19]: 65
- Plant response rating, Bromegrass, Downy [4, 20]: 25
- Ryegrass, Italian plant response rating [5, 14]: 65
- Plant response rating, Ryegrass, Italian [5, 15]: 80
- Plant response rating, Ryegrass, Italian [5, 16]: 90
- Plant response rating (scale of 0 to 100), Ryegrass, Italian ([5]; Preemergence, 31 g ai/ha): 75
- Plant response rating, Ryegrass, Italian [5, 17]: 85
- Plant response rating, Ryegrass, Italian [5, 18]: 100
- Plant response rating, Ryegrass, Italian [5, 19]: 100
- Plant response rating, Ryegrass, Italian [5, 20]: 75
- Foxtail, Green plant response rating [6, 14]: 75
- Plant response rating, Foxtail, Green [6, 15]: 95
- Plant response rating, Foxtail, Green [6, 16]: 95
- Plant response rating (scale of 0 to 100), Foxtail, Green ([6]; Preemergence, 31 g ai/ha): 50
- Plant response rating, Foxtail, Green [6, 17]: 45
- Plant response rating, Foxtail, Green [6, 18]: 65
- Plant response rating, Foxtail, Green [6, 19]: 100
- Plant response rating, Foxtail, Green [6, 20]: 90
- Mustard, Wild plant response rating [7, 14]: 98
- Plant response rating, Mustard, Wild [7, 15]: 100
- Plant response rating, Mustard, Wild [7, 16]: 100
- Plant response rating (scale of 0 to 100), Mustard, Wild ([7]; Preemergence, 31 g ai/ha): 85
- Plant response rating, Mustard, Wild [7, 17]: 100
- Plant response rating, Mustard, Wild [7, 18]: 100
- Plant response rating, Mustard, Wild [7, 19]: 100
- Plant response rating, Mustard, Wild [7, 20]: 100
- Wheat, Winter plant response rating [8, 14]: 10
- Plant response rating, Wheat, Winter [8, 15]: 15
- Plant response rating, Wheat, Winter [8, 16]: 20
- Plant response rating (scale of 0 to 100), Wheat, Winter ([8]; Preemergence, 31 g ai/ha): 0
- Plant response rating, Wheat, Winter [8, 17]: 0
- Plant response rating, Wheat, Winter [8, 18]: 0
- Plant response rating, Wheat, Winter [8, 19]: 10
- Plant response rating, Wheat, Winter [8, 20]: 15
- Oat, Wild plant response rating [9, 14]: 85
- Plant response rating, Oat, Wild [9, 15]: 85
- Plant response rating, Oat, Wild [9, 16]: 98
- Plant response rating (scale of 0 to 100), Oat, Wild ([9]; Preemergence, 31 g ai/ha): 75
- Plant response rating, Oat, Wild [9, 17]: 80
- Plant response rating, Oat, Wild [9, 18]: 85
- Plant response rating, Oat, Wild [9, 19]: 95
- Plant response rating, Oat, Wild [9, 20]: 90
- Russian Thistle plant response rating [10, 14]: 70
- Plant response rating, Russian Thistle [10, 15]: 85
- Plant response rating, Russian Thistle [10, 16]: 95
- Plant response rating (scale of 0 to 100), Russian Thistle ([10]; Preemergence, 31 g ai/ha): 0
- Plant response rating, Russian Thistle [10, 17]: 0
- Plant response rating, Russian Thistle [10, 18]: 0
- Plant response rating, Russian Thistle [10, 19]: 25
- Plant response rating, Russian Thistle [10, 20]: 75
- Oilseed Rape plant response rating [11, 14]: 95
- Plant response rating, Oilseed Rape [11, 15]: 100
- Plant response rating, Oilseed Rape [11, 16]: 100
- Plant response rating (scale of 0 to 100), Oilseed Rape ([11]; Preemergence, 31 g ai/ha): 0
- Plant response rating, Oilseed Rape [11, 17]: 10
- Plant response rating, Oilseed Rape [11, 18]: 65
- Plant response rating, Oilseed Rape [11, 19]: 100
- Plant response rating, Oilseed Rape [11, 20]: 98
- Chickweed plant response rating [12, 14]: 90
- Plant response rating, Chickweed [12, 15]: 100
- Plant response rating, Chickweed [12, 16]: 100
- Plant response rating (scale of 0 to 100), Chickweed ([12]; Preemergence, 31 g ai/ha): 95
- Plant response rating, Chickweed [12, 17]: 95
- Plant response rating, Chickweed [12, 18]: 100
- Plant response rating, Chickweed [12, 19]: 100
- Plant response rating, Chickweed [12, 20]: 100
- Speedwell plant response rating [13, 14]: 70
- Plant response rating, Speedwell [13, 15]: 80
- Plant response rating, Speedwell [13, 16]: 100
- Plant response rating (scale of 0 to 100), Speedwell ([13]; Preemergence, 31 g ai/ha): 0
- Plant response rating, Speedwell [13, 17]: 75
- Plant response rating, Speedwell [13, 18]: 100
- Plant response rating, Speedwell [13, 19]: 100
- Plant response rating, Speedwell [13, 20]: 75
